Literature values, collected in patent publication US20220079896A1, “DELAYED RELEASE COMPOSITIONS” (AMNEAL COMPLEX PRODUCTS RESEARCH LLC, priority 2020, published 2022).

For `NC(=O)C[S@@+]([O-])C(c1ccccc1)c1ccccc1` [Armodafinil, (−)-2-[(R)-(diphenylmethyl)sulfinyl] acetamide], the “mean single-dose terminal elimination half-life” value is listed as “approximately 13 hours”.
In the case of `NC(=O)C[S+]([O-])C(c1ccccc1)c1ccccc1` (centres unmarked) [modafinil], the “mean single-dose terminal elimination half-life” value is listed as “approximately 13 hours”.
